Test results taken from US12427144B2, “Compounds and methods for the targeted degradation of androgen receptor” (Arvinas Operations, Inc., priority 2019, dated 2025).

Target: T1, androgen receptor (Homo sapiens, UniProt P10275)
T1 construct: endogenous in cells; host or cells: VCaP
T1 sequence (P10275 1-920): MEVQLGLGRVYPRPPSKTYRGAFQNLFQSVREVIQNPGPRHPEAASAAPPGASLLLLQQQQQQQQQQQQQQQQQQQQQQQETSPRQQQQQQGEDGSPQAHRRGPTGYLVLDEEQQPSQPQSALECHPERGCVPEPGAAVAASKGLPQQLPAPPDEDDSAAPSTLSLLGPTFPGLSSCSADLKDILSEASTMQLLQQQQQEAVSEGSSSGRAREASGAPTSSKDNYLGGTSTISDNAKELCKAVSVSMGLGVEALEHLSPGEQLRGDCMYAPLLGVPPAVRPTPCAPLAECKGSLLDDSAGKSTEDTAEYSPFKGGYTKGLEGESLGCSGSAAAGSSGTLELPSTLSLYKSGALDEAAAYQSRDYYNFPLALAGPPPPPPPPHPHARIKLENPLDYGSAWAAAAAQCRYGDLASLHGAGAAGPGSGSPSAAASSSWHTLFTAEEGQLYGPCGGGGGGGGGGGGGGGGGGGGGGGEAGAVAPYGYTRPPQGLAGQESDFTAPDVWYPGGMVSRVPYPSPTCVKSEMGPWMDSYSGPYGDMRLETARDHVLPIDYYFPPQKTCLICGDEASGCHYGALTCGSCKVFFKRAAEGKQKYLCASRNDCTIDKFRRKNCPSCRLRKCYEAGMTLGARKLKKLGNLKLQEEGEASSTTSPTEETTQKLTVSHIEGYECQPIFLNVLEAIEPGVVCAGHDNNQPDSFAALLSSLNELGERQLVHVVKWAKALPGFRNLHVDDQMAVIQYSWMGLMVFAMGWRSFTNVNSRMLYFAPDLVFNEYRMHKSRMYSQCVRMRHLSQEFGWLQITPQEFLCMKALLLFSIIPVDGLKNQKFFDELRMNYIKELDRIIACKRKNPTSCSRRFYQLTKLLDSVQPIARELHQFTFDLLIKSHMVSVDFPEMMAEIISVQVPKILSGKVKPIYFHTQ
Assay: AR ELISA assay (PathScan AR Sandwich ELISA), VCaP cells
Format: cell-based
Conditions: drug treatment 5 hours
Description: Compounds were evaluated in this assay in LNCaP and/or VCaP cells utilizing similar protocols. The protocols used with VCaP cells are described below. The androgen receptor ELISA assay was performed using PathScan AR Sandwich ELISA (Cell Signaling Catalog #12850) according to the following assay steps:
VCaP cells were seeded at 40,000 cells/well at a volume of 100 μL/well in VCaP assay medium [Phenol red free RPMI (Gibco Cat #11835-030); 5% Charcoal Stripped (Dextran treated) FBS (Omega Scientific, Cat #FB-04); 1% penstrep (Life Technologies, Gibco Cat #: 10378-016)] in Corning 3904 plates. The cells were incubated for a minimum of 3 days. Cells were dosed with PROTACs diluted in 0.01% DMSO and the drug treatment was allowed for 5 hours.
AR ELISA (Cell Signaling) was performed as follows. 1× Cell Signaling Cell lysis buffer was made (Catalogue #9803; comes with the kit). Media from the treated wells is aspirated, and 100 μL 1× cell lysis buffer/well is added. The cells were placed on a shaker for 10 minutes at 4° C. Twenty microliters of lysate was transferred to 100 μl of Diluent in ELISA plate (0.15 μg/ml-[…]). The lysate-diluent mixture was shaken for 30 minutes at 37° C. Allow mouse AR antibody, anti-mouse antibody, TMB, and STOP solution to come to room temperature. The 1×ELISA buffer included in kit was made and loaded in the reservoir. Media from the plates was discarded, the ELISA plate tapped hard on paper towel, and washed 4×200 μl ELISA wash buffer using a plate washer.
One-hundred (100) […] of mouse AR detection Ab was added; the plates were covered and shaken at 37° C. for 1 hour; media was discarded from the plates, the plates were tapped on a paper towel, washed 4× with 200 μL ELISA wash buffer with a plate washer.
One-hundred (100) […] of anti-mouse—HRP conjugated Ab (comes with the kit) was added; the plates were covered and shaken at 37° C. for 30 minutes; the TMB reagent was allowed to come to room temperature; the media was discard from the plate, the plates were tapped on paper towel, washed 4× with 200 μL of ELISA wash buffer; the plates were tapped the plates on paper towel. One-hundred (100) L of TMB was added and the plates shaken for 2 minutes—while watching for color development. One-hundred (100) L Stop solution was added when light blue color developed. Plates were shaken and read at 450 nm.
Progression of prostate cancer in patients treated with anti-androgen therapy usually involves one of several mechanisms of enhanced Androgen Receptor (AR) signaling, including increased intratumoral androgen synthesis, increased AR expression and AR mutations. PROTACs (PROteolysis TArgeting Chimera), which use bi-functional molecules that simultaneously bind a target of choice and an E3 ligase, cause ubiquitination via induced proximity and degradation of the targeted, pathological protein. As opposed to traditional target inhibition, which is a competitive process, degradation is a progressive process. As such, it is less susceptible to increases in endogenous ligand, target expression, or mutations in the target. Thus, this technology appears to be ideal for addressing the mechanisms of AR resistance in patients with prostate cancer. Data was analyzed and plotted using GraphPad Prism software.

DC50 [nM]	Dmax [%]	Compound
1 to 10	< 50	Cc1cc(O[C@H]2C(C)(C)[C@H](NC(=O)c3cnc(N4CCC(CN(C(C)C)[C@H]5C[C@H](Oc6cccc(C(=O)NC7CCC(=O)NC7=O)c6)C5)CC4)cn3)C2(C)C)cc(C)c1C#N (stereo partly shown) [Compound 15, 5-(4-[[(propan-2-yl)[(1r,3r)-3-[3-[(2,6-dioxopiperidin-3-yl)carbamoyl]phenoxy]cyclobutyl]amino]methyl]piperidin-1-yl)-N-[(1r,3r)-3-(4-cyano-3,5-dimethylphenoxy)-2,2,4,4-tetramethylcyclobutyl]pyrazine-2-carboxamide]
1 to 10	< 50	CC(C)N(CC1CCN(c2cnc(C(=O)N[C@H]3C(C)(C)[C@H](Oc4ccc(C#N)c(Cl)c4)C3(C)C)cn2)CC1)[C@H]1C[C@H](Oc2ccc(C(=O)NC3CCC(=O)NC3=O)cc2)C1 (stereo partly drawn) [Compound 16, N-((1R,3R)-3-(3-chloro-4-cyanophenoxy)-2,2,4,4-tetramethylcyclobutyl)-5-(4-((((1R,3R)-3-(4-((2,6-dioxopiperidin-3-yl)carbamoyl)phenoxy)cyclobutyl)(isopropyl)amino)methyl)piperidin-1-yl)pyrazine-2-carboxamide]
